Test results taken from patent publication US5206382A, “Indole derivatives, pharmaceutical compositions and methods of treating neurological and psychiatric disorders” (Fidia Georgetown Institute for the Neurosciences, priority 1991, dated 1993).

Columns and labels:
GABAA receptors = conditions: in words; cited from earlier work
MBR [1] = conditions: in words; cited from earlier work
rats = conditions: rats, small doses; partially resistant to Flumazenil, sensitive to PK-11195; cited from earlier work
GABAA receptor = conditions: in words; cited from earlier work
MBR [2] = conditions: in words; cited from earlier work; remark: listed apart in the source
[3] = target: T1, MBR (mitochondrial benzodiazepine recognition site) (Rattus norvegicus, UniProt P16257); test: Displacement of ^3 H-PK11195 from mitochondrial BZD recognition site (MBR); format: binding, Sprague Dawley rat; conditions: for IC50: displacement of 1 nM ^3 H-PK11195, rat mitochondria, range in parentheses; for ^3 H-PK11195 / ^3 H-RO5-4864: ratio of the two IC50 values
T1 construct: Brain and adrenal glands were removed and homogenized with Polytron; from tissue; host or cells: mitochondrial fraction of Sprague Dawley rat brain and adrenal glands
Procedure: (§1) Mitochondrial Preparation: Sprague Dawley rats (200-250 gr.) were killed by decapitation. Brain and adrenal glands were removed and homogenized with Polytron for 15 minutes in ice cold buffer (10 mM Na/KPO4, 0.32M sucrose, pH 7.4). The homogenate was centrifuged for 15 minutes at 6,500 xg at 4° C. The resulting supernatant was centrifuged for 15 minutes at […] at 4° C. The pellet was suspended in buffer (20 times) by gentle homogenization and centrifuged at 10,000 xg at 4° C. for 15 minutes. The washed mitochondrial pellet was stored at -70° C.
(§2) For the binding assay the mitochondrial fraction was diluted with 50 mM Na/KPO4 buffer (pH 7.4) to give a final protein concentration of […] in 100 μl buffer. This suspension was incubated with 1 nM of ^3 H PK-11195 or ^3 H RO 5-4864 (50 μl) with or without 10/μM unlabeled PK-11195 or RO 5-4864 to assess the extent of total and non-specific binding. Different amounts of indole derivatives were added to the incubation medium in a volume of 50 μl. After incubation for 60 minutes at 4° C., samples were filtered and the radioactivity was measured in a scintillation counter.

[4] = target: ^3 H-GABA binding (crude synaptic membrane); test: ^3 H-GABA binding, crude synaptic membranes; set-up: species or system Sprague Dawley rat; conditions: 10 nM ^3 H-GABA, rat cerebellum membranes
Procedure: (§3) Crude Synaptic Membrane Preparation: Sprague Dawley rats (200-250 gr.) were killed by decapitation. The cerebella were removed and incubated for 20 minutes in ice cold double distilled water after homogenization with Polytron. The homogenate was centrifuged at 18,000 xg at 4° C. for 10 minutes. The pellet was suspended in ice-cold buffer 50 mM Na/KPO4(pH 7.4) and centrifuged at 18,000 xg at 4° C. for 10 minutes. After two other centrifugations, the membranes were suspended in 5 ml of buffer and the proteins were measured.
(§4) The membranes were diluted with 50 mM Na/KPO4 buffer (pH 7.4) to a concentration of 150 μg of protein/ml, and 150 μl aliquots of the suspension were incubated with 50 μl of the different ligands to be tested: ^3 H-ZOLPIDEM(2 nM), ^3 H-FLUMAZENIL (2 nM), ^3 H-GABA(10 nM), ^3 H-MK 801(5 nM), ^3 H-KETANSERIN(1 nM), ^3 H-GLYCINE(20 nM), ^3 H-SPIPERONE(1 nM), ^3 H-AMPA(10 nM), ^3 H-3-PPP(1 nM), and ^3 H-NALOXONE(1 nM). Non-specific binding was assessed by displacing with 10 to 1000/μM of cold ligand. The different indole derivatives were added in a volume of 50 μl in a concentration varying from 10^-9 to 10^-3 M. The results are reported in Table I hereinbelow.

[5] = target: T1, MBR (mitochondrial benzodiazepine recognition site); test: Displacement of ^3 H-RO5-4864 from mitochondrial BZD recognition site (MBR); format: binding, Sprague Dawley rat; conditions: displacement of 1 nM ^3 H-RO5-4864, rat mitochondria; range in parentheses
Procedure: as §1, §2

[6] = tested on: mitochondrial pregnenolone formation, C6-2B glioma cells; test: Pregnenolone formation in glial mitochondria (C6-2B glioma cells); format: biochemical; conditions: for Effective concentration, maximal / EC50: C6 glial cell mitochondria, 15 minutes at 37° C.; for EC50: read-out: Effective concentration, 50%; for Stimulation %: pregnenolone formation, increase over the control
Procedure: The mixture was preincubated for 5 minutes at 37° C. The incubation mixture was extracted with 5 ml chloroform/methanol (2:1, vol/vol), and the organic phase was evaporated to dryness. Pregnenolone was measured by a specific radioimmunoassay using an antibody obtained from Radioassay Systems Laboratories, Carson, Calif.

Sprague Dawley rats = test: Elevated X maze test; format: in vivo, Sprague Dawley rat; conditions: for Entries in open arms, test after 10 min injection / Entries in open arms, test after 20 min injection / Entries in open arms, test after 30 min injection: rats; for behavioral output of rats in the elevated X maze test / anxiolytic potency ranking: in words
Procedure: The elevated X maze is a behavioral test to detect anxiolytic drugs in rodents. […] The plus-maze consists of two open arms (43×8 cm) and two similarly sized enclosed arms with 9 cm high walls, arranged so that the arms of the same type are opposite each other. There is a central square of 8 cm. The apparatus is elevated to a height of 10 cm and each arm is divided into 3 squares.
Sprague Dawley rats weighing 200-250 gr. were housed in a room with a 12 hour light: 12 hour dark cycle and were allowed free access to food and water. After an i.v. injection of different indole derivatives, the rats were kept separated for 10, 20 or 30 minutes before testing. The testing period commenced when each animal was placed onto the central square of the maze. The number of entries in each arm was then recorded for 5 minutes. The maze was cleaned with water after each trial. The number of entries in the open arms provided a measure of anxiolytic activity of the drugs.

[7] = target: T2, BZD binding site located on the GABAA receptor (Rattus norvegicus, UniProt P18508+P62813); test: ^3 H-FLUMAZENIL binding, crude synaptic membranes; set-up: species or system Sprague Dawley rat; conditions: 2 nM ^3 H-FLUMAZENIL, rat cerebellum membranes
T2 construct: The cerebella were removed and incubated for 20 minutes in ice cold double distilled water; from tissue; host or cells: crude synaptic membranes of Sprague Dawley rat cerebellum
T2 sequence (P62813 28-455): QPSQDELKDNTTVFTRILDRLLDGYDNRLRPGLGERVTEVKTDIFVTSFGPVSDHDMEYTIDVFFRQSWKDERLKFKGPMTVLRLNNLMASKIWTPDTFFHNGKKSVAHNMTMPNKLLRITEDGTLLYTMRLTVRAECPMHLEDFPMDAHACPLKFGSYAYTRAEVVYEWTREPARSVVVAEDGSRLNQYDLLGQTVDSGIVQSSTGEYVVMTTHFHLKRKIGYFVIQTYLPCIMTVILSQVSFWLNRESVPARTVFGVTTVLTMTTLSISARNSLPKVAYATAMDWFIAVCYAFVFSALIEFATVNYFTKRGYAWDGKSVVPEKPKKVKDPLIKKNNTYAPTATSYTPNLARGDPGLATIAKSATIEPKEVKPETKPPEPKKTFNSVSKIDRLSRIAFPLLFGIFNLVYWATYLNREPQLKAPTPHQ
T2 sequence (P18508 39-466): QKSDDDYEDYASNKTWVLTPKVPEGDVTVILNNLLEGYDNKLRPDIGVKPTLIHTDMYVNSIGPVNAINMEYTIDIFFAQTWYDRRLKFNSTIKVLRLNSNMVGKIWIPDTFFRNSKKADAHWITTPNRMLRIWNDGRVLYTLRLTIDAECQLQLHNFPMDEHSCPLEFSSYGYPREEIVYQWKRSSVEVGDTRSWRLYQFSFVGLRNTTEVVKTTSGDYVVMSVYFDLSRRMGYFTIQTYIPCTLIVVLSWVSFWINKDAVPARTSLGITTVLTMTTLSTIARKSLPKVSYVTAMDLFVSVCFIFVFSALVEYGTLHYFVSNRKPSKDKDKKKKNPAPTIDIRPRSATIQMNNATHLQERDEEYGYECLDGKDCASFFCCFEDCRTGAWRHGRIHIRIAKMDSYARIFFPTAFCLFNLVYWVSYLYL
Procedure: as §3
The membranes were diluted with 50 mM Na/KPO4 buffer (pH 7.4) to a concentration of 150 μg of protein/ml, and 150 μl aliquots of the suspension were incubated with 50 μl of the different ligands to be tested: ^3 H-ZOLPIDEM(2 nM), ^3 H-FLUMAZENIL (2 nM), ^3 H-GABA(10 nM), ^3 H-MK 801(5 nM), ^3 H-KETANSERIN(1 nM), ^3 H-GLYCINE(20 nM), ^3 H-SPIPERONE(1 nM), ^3 H-AMPA(10 nM), ^3 H-3-PPP(1 nM), and ^3 H-NALOXONE(1 nM). Non-specific binding was assessed by displacing with 10 to 1000/μM of cold ligand.

[8] = target: T3, ^3 H-ZOLPIDEM binding (crude synaptic membrane) (Rattus norvegicus, UniProt P18508+P62813); test: ^3 H-ZOLPIDEM binding, crude synaptic membranes; set-up: species or system Sprague Dawley rat; conditions: 2 nM ^3 H-ZOLPIDEM, rat cerebellum membranes
T3 construct: from tissue; host or cells: crude synaptic membranes of Sprague Dawley rat cerebellum
T3 sequence (P62813 28-455): as the sequence (P62813 28-455) above
T3 sequence (P18508 39-466): as the sequence (P18508 39-466) above
Procedure: as §3, §4

[9] = Sedation and ataxia in rats; conditions: rat, in vivo, ratio of doses, read-out: anxiolytic doses lower than the doses that produce sedation and ataxia

| SMILES | modulation of GABA action (GABAA receptors) | IC50 [3] [nM] | ^3 H-PK11195 / ^3 H-RO5-4864 [3] | IC50 [4] [nM] | IC50 [5] [nM] | Effective concentration, maximal [6] | EC50 [6] [nM] | Stimulation % [6] [%] | Entries in open arms, test after 10 min injection (Sprague Dawley rats; 20 mg/kg i.v.) | Entries in open arms, test after 20 min injection (Sprague Dawley rats; 20 mg/kg i.v.) | Entries in open arms, test after 30 min injection (Sprague Dawley rats; 20 mg/kg i.v.) | behavioral output of rats in the elevated X maze test (Sprague Dawley rats) | IC50 [7] [nM] | IC50 [8] [nM] | further results |
| --- | --- | --- | --- | --- | --- | --- | --- | --- | --- | --- | --- | --- | --- | --- | --- |
| CC(=O)[C@H]1CC[C@H]2[C@@H]3CC[C@H]4C[C@H](O)CC[C@]4(C)[C@H]3CC[C@]12C [3-α-hydroxy-5α-pregnan-20-one(3-αOH-DHP), 3-α-hydroxy-5α-pregnan-20-one] | positively modulate | – | – | – | – | – | – | – | – | – | – | – | – | – | – |
| C[C@]12CC[C@@H](O)C[C@@H]1CC[C@@H]1[C@@H]2CC[C@]2(C)[C@@H](C(=O)CO)CC[C@@H]12 [3α,21-dihydroxy-5α-pregnan-20-one(THDOC), 3α,21-dihydroxy-5α-pregnan-20-one] | positively modulate | – | – | – | – | – | – | – | – | – | – | – | – | – | – |
| CN1C(=O)CN=C(c2ccc(Cl)cc2)c2cc(Cl)ccc21 [4-Cl-Diazepam] | – | – | – | – | – | – | – | – | – | – | – | – | – | – | affinity for the MBR (MBR [1]): high affinity; conflict response (rats): proconflict response; binding to the GABAA receptor / BZD recognition sites on GABAA receptors (GABAA receptor): binds to the GABAA receptor; cholesterol influx into mitochondria and formation of pregnenolone (MBR [2]): facilitates cholesterol influx into mitochondria and the formation of pregnenolone |
| CCCN(CCC)C(=O)Cc1c(-c2ccccc2)[nH]c2ccccc12 [Compound No. 2] | – | 32.5 | 1.4 | > 1000 | 22.5 | 10^-9 M | 0.33 | 200 | 0 | 0 | 0 | increase the behavioral output | > 1000 | > 1000 | Entries in open arms, test after 10 min injection (Sprague Dawley rats; 200 mg/kg i.v.): 4; Entries in open arms, test after 20 min injection (Sprague Dawley rats; 200 mg/kg i.v.): 0; Entries in open arms, test after 30 min injection (Sprague Dawley rats; 200 mg/kg i.v.): 0 |
| CCCCCCNC(=O)Cc1c(-c2ccccc2)[nH]c2ccccc12 [Compound No. 13] | – | 57.5 | 1.8 | > 1000 | 32.5 | – | – | – | 2 | 2 | 3 | increase the behavioral output | > 1000 | > 1000 | – |
| CCCN(CCC)C(=O)Cc1c(-c2ccc(Cl)cc2)[nH]c2ccccc12 [compound 5] | – | 28.5 | 1.1 | > 1000 | 25.5 | – | – | – | – | – | – | – | > 1000 | > 1000 | – |
| CCCN(CCC)C(=O)Cc1c(-c2ccc(F)cc2)[nH]c2ccccc12 [compound 20] | – | 100 | 2 | > 1000 | 50 | 10^-9 M | 0.33 | 183 | 3 | 2 | 6 | increase the behavioral output | > 1000 | – | – |
| CCCCCCN(CCCCCC)C(=O)Cc1c(-c2ccc(F)cc2)[nH]c2ccccc12 [compound 27] | – | 18 | 0.9 | > 1000 | 20 | 10^-7 M | 3.3 | 300 | – | – | – | increase the behavioral output | > 1000 | – | Entries in open arms, test after 10 min injection (Sprague Dawley rats; 0.5 mg/kg i.v.): 5; Entries in open arms, test after 20 min injection (Sprague Dawley rats; 0.5 mg/kg i.v.): 2; Entries in open arms, test after 30 min injection (Sprague Dawley rats; 0.5 mg/kg i.v.): 1; anxiolytic potency ranking (Sprague Dawley rats): most potent anxiolytic drugs; selectivity ratio [9]: 100 to 500 |
| CCCCCCN(CCCCCC)C(=O)Cc1c(-c2ccc(Cl)cc2)[nH]c2ccc(Cl)cc12 [compound 43] | – | – | – | – | – | – | – | – | – | – | – | increase the behavioral output | – | – | Entries in open arms, test after 10 min injection (Sprague Dawley rats; 0.5 mg/kg i.v.): 4; Entries in open arms, test after 20 min injection (Sprague Dawley rats; 0.5 mg/kg i.v.): 2; Entries in open arms, test after 30 min injection (Sprague Dawley rats; 0.5 mg/kg i.v.): 1; anxiolytic potency ranking (Sprague Dawley rats): most potent anxiolytic drugs; selectivity ratio [9]: 100 to 500 |
| CC(=O)[C@H]1CC[C@H]2[C@@H]3CC=C4C[C@@H](OS(=O)(=O)O)CC[C@]4(C)[C@H]3CC[C@]12C [pregnenolone sulphate] | negatively modulate | – | – | – | – | – | – | – | – | – | – | – | – | – | – |
